Test results published in patent publication US5763435A, “Sulfate conjugates of ursodeoxycholic acid, and their beneficial use in inflammatory disorders” (priority 1995, dated 1998).

Assays:
fecal bile acids = experiment: Fecal bile acid excretion after oral administration; format: in vivo, Sprague-Dawley rats; conditions: for Total fecal bile acid excretion: pooled feces day 4
Procedure: Male Sprague-Dawley rats (Harlan Sprague-Dawley, Inc., Indianapolis, Ind.), weighing 210-290 g, were maintained on a 12-hour light-dark cycle and fed standard laboratory chow ad libitum for 3 days. The animals were then transferred to metabolic cages in which they were housed individually and fed the same diet. UDCA, UDCA 3-sulfate, UDCA 7-sulfate, and UDCA 3,7-disulfate were administered by gavage at a dose of 250 mg/day for 4 consecutive days. Each group comprised 3-6 rats. Body weights of the animals were measured each day. On day 5, the animals were killed by exsanguination under ether anesthesia. Plasma was collected and frozen at -20° C. The liver was removed, rinsed in normal saline, and flash-frozen in liquid nitrogen. Urine and feces were collected every 24 hours and frozen at -20° C. All animals received humane care in compliance with the "Guide for the Care and Use of Laboratory Animals" prepared by the National Academy of Sciences (National Institutes of Health publication no. 86-23, revised in 1985).
Intestinal contents were weighed and dissected into small pieces. In each group, feces (100 mg) from all animals were pooled on day 4 of the study and then ground into a fine paste. All samples were sonicated and sequentially refluxed in 80% methanol for 2 hours and chloroform/methanol (1:1) for 1 hour. Samples were taken to dryness, and the dried extracts were resuspended in 80% methanol (20 mL). Fractions of the methanolic extract (1/40 of intestinal contents and 1/20 of feces samples) were removed and the internal standard nordeoxycholic acid (10 μg) was added. This extract was diluted with 0.01 mol/L acetic acid (20 mL) and passed first through a column of Lipidex 1000 (bed size, 4×1 cm; Packard Instrument Co., Groningen, The Netherlands) and then through a Bond-Elut C18, cartridge (Analytichem, Harbor City, Calif.). Bile acids were recovered by elution of the Lipidex 1000 column and the Bond-Elut cartridge with methanol (20 mL and 5 mL, respectively), and the combined extracts were taken to dryness. Unconjugated bile acids were isolated and separated from neutral sterol and conjugated bile acids by lipophilic anion exchange chromatography on diethylaminohydroxypropyl Sephadex LH-20 (Lipidex-DEAP; Package Instrument Co.). Recovery of unconjugated bile acids was achieved by elution with 0.1 mol/L acetic acid in 72% ethanol (7 mL) followed by evaporation of the solvents. Total conjugated bile acids were recovered with 9 mL of 0.3 mol/L acetic acid in 72% ethanol, pH 9.6. Salts were removed by passage through a Bond-Elut C18 cartridge after addition of nordeoxycholic acid (10 μg), and conjugated bile acids were recovered by elution with 5 mL of methanol. Solvolysis was performed in a mixture of methanol (1 mL), distilled tetrahydrofuran (9 mL), and 1 mol/L trifluoracetic acid in dioxane (0.1 mL) and heated to 45° C for 2 hours. After solvolysis, unconjugated bile acids were isolated by chromatography on Lipidex-DEAP. Methyl ester derivatives were prepared by dissolving the sample in methanol (0.3 mL) and reacting with 2.7 mL of freshly distilled ethereal diazomethane. After evaporation of the reagents, the methyl ester derivatives were converted to trimethylsilyl ethers by the addition of […] of Tri-Sil reagent (Pierce Chemicals, Rockford, Ill.). A column of Lipidex 5000 (Packard Instrument Co.) was used to remove derivatizing reagents and to purify the sample.
GC-MS analysis was performed using a Finnigan 4635 mass spectrometer (Finnigan Inc., San Jose, Calif.) that housed an identical gas chromatography column operated under the same conditions. Electron ionization (70 eV) mass spectra were recorded over the mass range of 50-800 daltons by repetitive scanning of the eluting components. […]

[1] = system: bile acids secreted in bile; experiment: Biliary bile acid composition during i.v. infusion (GC-MS); format: in vivo, Sprague-Dawley rats; conditions: for Further hydroxylation (in words): GC-MS of bile
Procedure: Adult male Sprague-Dawley rats (body weight 200-230 g) were anesthetized by an intraperitoneal injection of pentobarbital (Nembutal, 7.5 mg/100 g body weight), and maintained under sedation by additional doses. The right jugular vein and the common bile duct were cannulated using PE-50 polyethylene tubing (Clay-Adams, Parsippany, N.J.). Body temperature was maintained throughout the experiment at 37° C. using a rectal probe and a thermostatically controlled heating pad (Harvard Apparatus Co., Inc., Millis, Mass.). Saline was infused at a rate of 1.0 ml/h using a Harvard pump (Harvard Apparatus Co., Inc.) into the jugular vein for a control period of 2h. After collecting two 10 minute bile samples for base-line analysis, the bile acids were individually infused intravenously (i.v.) for 30 minutes in stepwise increasing doses (0.5, 1.0, and 2.0 μmol/min/100 g body weight). Bile acid solutions were prepared in 3% human albumin in 0.45% saline. Six animals were used for each experiment and bile was collected every 10 minutes into preweighed tubes. At the end of the experiment, blood was obtained by cardiac puncture, and urine was obtained by aspiration of the bladder. All biological specimens were stored at -20° C. This animal study protocol (#1 B 10044) was approved by the Bioethics committee of the Children's Hospital Medical Center (Cincinnati, Ohio).
GC-MS was carried out on either a VG Autospec Q magnetic sector instrument or a Finnigan 4635 quadruple GC-MS-DS instrument housing identical GC columns and operated under the same chromatographic conditions. Electron ionization (70 eV) mass spectra were recorded over the mass range 50 to 1000 Da/e by repetitive scanning of the eluting components.
For the determination of hepatic biotransformation of the infused bile acid, bile collections from the six animal were pooled and biliary bile acids were determined by GC-MS after extraction, solvolysis, hydrolysis, and derivatization. Quantification of bile acids was achieved using GC, by comparing the peak height response of the individual bile acid with the peak height response obtained from the internal standard, nordeoxycholic acid added to the initial sample of bile. Identification of a bile acid was made on the basis of the retention index relative to a homologous series of n-alkanes, referred to as the methylene unit value (MU) and the fragmentation pattern of the mass spectrum was compared with authentic standards. A list of over 100 mass spectra of authentic bile acid standards and retention indices was recently compiled as a reference source (Lawson, A. M., et al, Mass spectrometry of bile acids, The Bile Acids, Vol. 4, Methods and Applications, pp. 167-267 (1988)).

SMILES	Total fecal bile acid excretion (fecal bile acids) [mg/g feces]	Fecal lithocholate/deoxycholate ratio (in words) (fecal bile acids; vs control)	Relative % composition in bile: CA ([1]; 20-30 mins) [%]	Relative % composition in bile: CDCA ([1]; 20-30 mins) [%]	Relative % composition in bile: DCA ([1]; 20-30 mins) [%]	Relative % composition in bile: MCA ([1]; 20-30 mins) [%]	Relative % composition in bile: UDCA ([1]; 20-30 mins) [%]	Relative % composition in bile: α-MCA ([1]; 20-30 mins) [%]	Relative % composition in bile: β-MCA ([1]; 20-30 mins) [%]	Relative % composition in bile: CA ([1]; 50-60 mins) [%]	Relative % composition in bile: CDCA ([1]; 50-60 mins) [%]	Relative % composition in bile: DCA ([1]; 50-60 mins) [%]	Relative % composition in bile: MCA ([1]; 50-60 mins) [%]	Relative % composition in bile: UDCA ([1]; 50-60 mins) [%]	Relative % composition in bile: α-MCA ([1]; 50-60 mins) [%]	Relative % composition in bile: β-MCA ([1]; 50-60 mins) [%]	Relative % composition in bile: CA ([1]; 80-90 mins) [%]	Relative % composition in bile: CDCA ([1]; 80-90 mins) [%]	Relative % composition in bile: MCA ([1]; 80-90 mins) [%]	Relative % composition in bile: UDCA ([1]; 80-90 mins) [%]	also measured
C[C@H](CCC(=O)O)[C@H]1CC[C@H]2[C@@H]3[C@@H](O)C[C@@H]4C[C@H](OS(=O)(=O)O)CC[C@]4(C)[C@H]3CC[C@]12C [UDCA-3S, ursodeoxycholic acid 3-sulfate]	10.70	markedly increased	36.0	4.6	2.5	4.9	33.3	6.2	12.4	14.9	1.9	1.0	1.5	70.6	2.7	7.4	18.2	2.5	2.0	67.7	Increase of fecal lithocholic acid/deoxycholic acid ratio vs normal rat feces (fecal bile acids): 11 fold; Fecal lithocholic acid excretion (in words) (fecal bile acids; vs control): large increase in the fecal lithocholic acid concentration; Relative % composition in bile: others ([1]; 20-30 mins): 5.2%; Relative % composition in bile: others ([1]; 50-60 mins): 11.5%; Relative % composition in bile: DCA ([1]; 80-90 mins): 1.3%; Relative % composition in bile: others ([1]; 80-90 mins): 11.2%; Relative % composition in bile: α-MCA ([1]; 80-90 mins): 3.0%; Relative % composition in bile: β-MCA ([1]; 80-90 mins): 5.2%; Further hydroxylation (in words) [1]: metabolized by further hydroxylation, most probably in the side-chain
C[C@H](CCC(=O)O)[C@H]1CC[C@H]2[C@@H]3[C@@H](OS(=O)(=O)O)C[C@@H]4C[C@H](OS(=O)(=O)O)CC[C@]4(C)[C@H]3CC[C@]12C [UDCA-DS, ursodeoxycholic acid 3,7-disulfate]	10.88	no change in the lithocholate/deoxycholate ratio	24.5	2.5	2.1	3.2	54.6	3.4	9.7	15.3	0.7	1.2	2.2	70.7	2.2	6.7	10.6	0.9	1.4	79.1	Fecal concentration of total UDCA (in words) (fecal bile acids): markedly greater than that found in the feces of animals administered UDCA or UDCA 3-sulfate; Form of UDCA excreted in feces (fecal bile acids): excreted in feces virtually unchanged; Relative % composition in bile: α-MCA ([1]; 80-90 mins): 2.6%; Relative % composition in bile: β-MCA ([1]; 80-90 mins): 6.5%; Further hydroxylation (in words) [1]: neither UDCA-7S nor UDCA-disulfatewere hydroxylated
